Data reported in patent US5705499A, “8-arylalkyl- and 8-arylheteroalkyl-5,11-dihydro-6H-dipyrido[3,2-B:2',3'-e][1]diazepines and their use in the treatment of HIV-1 infection” (Boehringer Ingelheim Pharmaceuticals, Inc., priority 1996, dated 1998).
Where two headings read alike, the source gives them in different places.

Legend:
[1] = test system: HTLV-IIIB strain of HIV-1 (in C8166-45 cells); experiment: Syncytia (human T-cell culture) Assay; assay type: cell-based
Procedure: Formation of syncytia is a feature of in vitro cultures of CD4+ T-cells infected with HIV-1. In this assay (1), T-cells are treated with a putative replication inhibiting compound and then infected with HIV-1. After incubation, the culture is checked for the formation of syncytia. The absence or reduction in the number of syncytia is used as a measure of the test compound's ability to inhibit HIV replication.
The target cells, designated C8166-45, are a fusion of umbilical blood lymphocytes and T-cells from leukemia-lymphoma patients and are established at an initial density of 5×10^4 per 90 μl in RPMI 1640 (+10% fetal bovine serum) culture medium in 96 well flat bottom plates. A selected amount of test compound, dissolved in DMSO, is included. 50 TCID50 's (the dose that results in induced effect in 50% of test cultures) of the HTLV-IIIB strain of HIV-1 (3) are inoculated into each culture. Control cultures receive compound or virus only.
The cultures are incubated for 72 hours (4), at 37° C. with 5% carbon dioxide, and then visually examined for the frequency and distribution of virus-induced giant cell syncytia. The percent inhibition by the test compound is determined by comparison with control values.

C8166-45 cell line = experiment: MTT Assay (cytotoxicity); assay type: cell-based, human; conditions: C8166-45 cells, five days
[2] = Human immunodeficiency virus 1, T-cell, C8166-45 cells, HTLV-IIIB strain, 72 hours, read-out: Syncytia Assay IC50

| IC50 [1, 2] | SMILES | MTT Assay CC30 (C8166-45 cell line) | IC50 ([1]; Human immunodeficiency virus 1, IIIB, T-cell, 72 h, read-out: Syncytia Assay IC50 (μM)) |
| --- | --- | --- | --- |
| 0.03 µM | CCN1c2ncc(CCc3ccccc3)cc2C(=O)N(C)c2cccnc21 [Example 42, 5,11-Dihydro-11-ethyl-5methyl-8-(2-phenylethyl)-6H-dipyrido[3,2-b:2',3'-e][1,4]diazepin-6-one] |  |  |
| 0.01 µM | CCN1c2ncc(CCc3ccccc3)cc2C(=O)N(C)c2ccc(Cl)nc21 [Example 45, 2Chloro-5,11-dihydro-11-ethyl-5-methyl-8-(2-phenylethyl)-6H-dipyrido[3,2-b:2',3'-e][1,4]diazepin-6-one] | > 60 µM |  |
| 0.03 µM | CCN1c2ncc(CCOc3cc[n+]([O-])cc3)cc2C(=O)N(C)c2ccc(Cl)nc21 [Example 96, 2-chloro-5,11-dihydro-11-ethyl-5-methyl-8-[2-(N-oxo-pyrid-4-yloxy)ethyl]-6H-dipyrido[3,2-b:2',3'-e[]1,4]diazepin-6-one] | > 256 µM |  |
|  | CCN1c2ncc(COc3cccc(N)c3)cc2C(=O)N(C)c2ccc(Cl)nc21 [Example 99, 8-(3-aminophenyloxy)methyl-2-chloro-5,11-dihydro-11-ethyl-5-methyl-6H-dipyrido[3,2-b:2',3'-e][1,4]diazepin-6-one] |  | 0.02 µM |
| 0.05 µM | CCN1c2ncc(COc3ccccc3)cc2C(=O)N(C)c2ccc(Cl)nc21 [Example 100, 2-chloro-5,11-dihydro-11-ethyl-5-methyl-8-(phenyloxy)methyl-6H-dipyrido[3,2-b:2',3'-e][1,4]diazepin-6-one] | > 60 µM |  |
|  | CCN1c2ncc(COc3ccc(O)cc3)cc2C(=O)N(C)c2ccc(Cl)nc21 [Example 105, 2-chloro-5,11-dihydro-11-ethyl-8-(4-hydroxyphenyloxy)methyl-5-methyl-6H-dipyrido[3,2-b:2',3'-e][1,4]diazepin-6-one] | 40 µM |  |
|  | CCN1c2ncc(COc3ccccc3O)cc2C(=O)N(C)c2ccc(Cl)nc21 [Example 106, 2-chloro-5,11-dihydro-11-ethyl-8-(2-hydroxyphenyloxy)methyl-5-methyl-6H-dipyrido[3,2-b:2',3'-e][1,4]diazepin-6-one] | > 60 µM |  |
|  | CCN1c2ncc(COc3cccnc3)cc2C(=O)N(C)c2ccc(Cl)nc21 [Example 107, 2-chloro-5,11-dihydro-11-ethyl-5-methyl-8-(3-pyridyloxy)methyl-6H-dipyrido[3,2-b:2',3'-e][1,4]diazepin-6-one] | > 256 µM |  |
|  | CCN1c2ncc(COc3cccc(OC)c3)cc2C(=O)N(C)c2ccc(Cl)nc21 [Example 108, 2-chloro-5,11-dihydro-11-ethyl-8-(3-methoxyphenyloxy)methyl-5-methyl-6H-dipyrido[3,2-b:2',3'-e][1,4]diazepin-6-one] | > 120 µM |  |
|  | CCN1c2ncc(COc3ccc(C(=O)OC)cc3)cc2C(=O)N(C)c2ccc(Cl)nc21 [Example 109, 2-chloro-5,11-dihydro-11-ethyl-8-(4-(methoxycarbonyl)phenyloxy)methyl-5-methyl-6H-dipyrido[3,2-b :2',3'-e][1,4]diazepin-6-one] | > 60 µM |  |
|  | CCN1c2ncc(COc3ccccc3C(=O)OC)cc2C(=O)N(C)c2ccc(Cl)nc21 [Example 110, 2-chloro-5,11-dihydro-11-ethyl-8-(2-(methyoxycarbonyl)phenyloxy)methyl-5-methyl-6H-dipyrido[3,2-b:2',3'-e][1,4]diazepin-6-one] | > 250 µM |  |
|  | CCN1c2ncc(COc3cccc(C(=O)OC)c3)cc2C(=O)N(C)c2ccc(Cl)nc21 [Example 111] | > 60 µM |  |
|  | CCN1c2ncc(COc3cccc(C(=O)O)c3)cc2C(=O)N(C)c2ccc(Cl)nc21 [Example 112, 2-chloro-5,11-dihydro-11-ethyl-8-(3-(carboxy)phenyloxy)methyl-5-methyl-6H-dipyrido[3,2-b:2',3'-e][1,4]diazepin-6-one] | 250 µM |  |
|  | CCN1c2ncc(COc3cccc(C(N)=O)c3)cc2C(=O)N(C)c2ccc(Cl)nc21 [Example 113, 8-(3-(aminocarbonyl)phenyloxy)methyl-2-chloro-5,11-dihydro-11-ethyl-5-methyl-6H-dipyrido[3,2-b:2',3'-e][1,4]diazepin-6-one] | 130 µM |  |
|  | CCN1c2ncc(COc3cccc4[nH]ccc34)cc2C(=O)N(C)c2ccc(Cl)nc21 [Example 114, 2-chloro-5,11-dihydro-11-ethyl-8-(4-indolyloxy)methyl-5-methyl-6H-dipyrido[3,2-b:2',3'-e][1,4]diazepin-6-one] | 30 µM |  |
|  | CCN1c2ncc(CN(C)c3ccccc3)cc2C(=O)N(C)c2ccc(Cl)nc21 [Example 116, 2-chloro-5,11-dihydro-11-ethyl-5-methyl-8-(N-methylphenylamino)methyl-6H-dipyrido[3,2-b:2',3'-e][1,4]diazepin-6-one] | > 60 µM |  |
| 0.005 µM | CCN1c2ncc(CSc3ccccc3)cc2C(=O)N(C)c2ccc(Cl)nc21 [Example 117, 2-chloro-5,11-dihydro-11-ethyl-5-methyl-8-(phenylthio)methyl-6H-dipyrido[3,2-b:2',3'-e][1,4]diazepin-6-one] | 60 µM |  |
|  | CCN1c2ncc(CS(=O)(=O)c3ccccc3)cc2C(=O)N(C)c2ccc(Cl)nc21 [Example 118, 2-chloro-5,11-dihydro-11-ethyl-5-methyl-8-(phenylsulfonyl)methyl-6H-dipyrido[3,2-b:2',3'e][1,4]diazepin-6-one] | 45 µM |  |
|  | CCN1c2ncc(CSc3ncccn3)cc2C(=O)N(C)c2ccc(Cl)nc21 [Example 121, 2-chloro-5,11-dihydro-11-ethyl-5-methyl-8-(pyrimidinyl-2-thio)methyl-6H-dipyrido[3,2-b:2',3'-e][1,4]diazepin-6-one] | 50 µM |  |
|  | CCN1c2ncc(CSc3[nH]cnc4nncc3-4)cc2C(=O)N(C)c2ccc(Cl)nc21 [Example 122, 2-chloro-5,11-dihydro-11-ethyl-5-methyl-8-(1H-pyrazolo[3,4-d]pyrimidine-4-ylthio)methyl-6H-dipyrido[3,2-b:2',3'-e][1,4]diazepin-6-one] | 25 µM |  |
| 0.006 µM | CCN1c2ncc(COc3ccncc3)cc2C(=O)N(C)c2ccc(Cl)nc21 [Example 124, 2-Chloro-5,11-dihydro-11-ethyl-5-methyl-8-(pyrid-4-yloxy)methyl-6H-dipyrido[3,2-b:2',3'-e][1,4]diazepin-6-one] | > 120 µM |  |
|  | CCN1c2ncc(COc3ccncc3)cc2C(=O)N(C)c2ccc(F)nc21 [Example 125, 5,11-dihydro-11-ethyl-2-fluoro-5-methyl-8-(pyrid-4-yloxy)methyl-6H-dipyrido[3,2-b:2',3'-e][1,4]diazepin-6-one] | 160 µM |  |
|  | CCN1c2ncc(COc3ccnc(C(F)(F)F)c3)cc2C(=O)N(C)c2ccc(Cl)nc21 [Example 126, 2-chloro-5,11-dihydro-11-ethyl-5-methyl-8-(2-trifluoromethylpyrid-4-yloxy)methyl-6H-dipyrido[3,2-b;2',3'-e][1,4]diazepin-6-one] | 64 µM |  |
| 0.003 µM | CCN1c2ncc(CCOc3ccncc3)cc2C(=O)N(C)c2ccc(Cl)nc21 [Example 127, 2-chloro-5,11-dihydro-11-ethyl-5-methyl-8-[2-(pyrid-4-yloxy)ethyl]-6H-dipyrido[3,2-b:2',3'-e][1,4]diazepin-6-one] | 55 µM |  |
|  | CCN1c2ncc(CCOc3ccncc3)cc2C(=O)N(C)c2cccnc21 [Example 128, 5,11-dihydro-11-ethyl-5-methyl-8-(pyrid-4-yloxy)ethyl-6H-dipyrido[3,2-b:2',3'-e][1,4]diazepin-6-one] | > 256 µM |  |
